Data published in US20240270723A1, “SUBSTITUTED HETEROCYCLIC COMPOUNDS” (BRISTOL-MYERS SQUIBB COMPANY, priority 2021, published 2024).

Assays:
[1] = system: IFNα-induced pSTAT5 in human whole blood (CD3 positive population); assay: IFNα-Induced STAT Phosphorylation in Human Whole Blood; type: cell-based; details: 1 h incubation with compound, 1000 U/mL IFNα A/D for 15 min, pSTAT5 in CD3 positive cells, read-out: Human Whole blood IFNa pSTAT5 IC50
Procedure: IFNα-Induced STAT Phosphorylation in Human Whole Blood
After an hour long incubation with compound, human whole blood (drawn with ACD-A as anticoagulant) was stimulated with 1000 U/mL recombinant human IFNα A/D (R&D Systems 11200-2) for 15 min. The stimulation was stopped by adding Fix/Lyse buffer (BD 558049). Cells were stained with a CD3 FITC antibody (BD 555916), washed, and permeabilized on ice using Perm III buffer (BD 558050). Cells were then stained with an Alexa-Fluor 647 pSTAT5 (pY694) antibody (BD 612599) for 60 min prior to analysis on the iQue Plus. The amount of pSTAT5 expression was quantitated by median fluorescence intensity after gating on the CD3 positive population.

in vitro = details: human, Caco-2, pH 7.4

| IC50 [1] [µM] | Papp A→B at 2 h, 3 μM (in vitro) [nm/s] | efflux ratio at 2 h, 3 μM (in vitro) | Compound |
| --- | --- | --- | --- |
| 1.09 | 342 | 1.1 | [2H]C([2H])([2H])NC(=O)c1nnc(NC(=O)C2CC2)cc1Nc1cncc(-c2cnn(C3CC3)n2)c1OC [Example 5, 6-(cyclopropanecarboxamido)-4-((5-(2-cyclopropyl-2H-1,2,3-triazol-4-yl)-4-methoxypyridin-3-yl)amino)-N-(methyl-d3)pyridazine-3-carboxamide] |
| 0.35 | 138 | 2.8 | [2H]C([2H])([2H])NC(=O)c1nnc(NC(=O)C2CC2)cc1Nc1ccnc(-c2cnn(C3CC3)c2)c1OC [Example 4, 6-(cyclopropanecarboxamido)-4-((2-(1-cyclopropyl-1H-pyrazol-4-yl)-3-methoxypyridin-4-yl)amino)-N-(methyl-d3)pyridazine-3-carboxamide] |

Second part, the compound before the results:

| Compound | IC50 [1] [µM] | Papp A→B at 2 h, 3 μM (in vitro) [nm/s] | efflux ratio at 2 h, 3 μM (in vitro) |
| --- | --- | --- | --- |
| [2H]C([2H])([2H])NC(=O)c1nnc(NC(=O)C2CC2)cc1Nc1ccnc(-c2cnn(C3CC3)n2)c1OC [Example 3, 6-(cyclopropanecarboxamido)-4-((2-(2-cyclopropyl-2H-1,2,3-triazol-4-yl)-3-methoxypyridin-4-yl)amino)-N-(methyl-d3)pyridazine-3-carboxamide] | 0.19 | 98 | 3.3 |
| [2H]C([2H])([2H])NC(=O)c1nnc(NC(=O)C2CC2)cc1Nc1ccnc(-c2cnn(C)n2)c1OC [Example 2, 6-(cyclopropanecarboxamido)-4-((3-methoxy-2-(2-methyl-2H-1,2,3-triazol-4-yl)pyridin-4-yl)amino)-N-(methyl-d3)pyridazine-3-carboxamide] | 0.05 | 122 | 4.9 |
| [2H]C([2H])([2H])NC(=O)c1nnc(NC(=O)C2CC2)cc1Nc1ncnc(-c2cnn(C)n2)c1OC [Example 1, 6-(cyclopropanecarboxamido)-4-((5-methoxy-6-(2-methyl-2H-1,2,3-triazol-4-yl)pyrimidin-4-yl)amino)-N-(methyl-d3)pyridazine-3-carboxamide] | 0.32 | 261 | 1.8 |
